Paper PMC7497403, “Development of Potent PfCLK3 Inhibitors Based on TCMDC-135051 as a New Class of Antimalarials” (Journal of Medicinal Chemistry, 2020)

What was measured:
Experiment in all cases: Kinase screen
Type in all cases: biochemical
EPH-B1 = EPH-B1 (Homo sapiens, UniProt P54762)
From the text: (§1) With verapamil used as a positive control.
(§2) V. Distribution coefficient (LogD7.4)

JNK2 = JNK2 (Homo sapiens, UniProt P45984)
From the text: as §1, §2

PRK2 = PRK2 (Homo sapiens, UniProt Q16513)
From the text: as §1, §2

JAK3 = JAK3 (Homo sapiens, UniProt P52333)
From the text: as §1, §2

HIPK1 = HIPK1 (Homo sapiens, UniProt Q86Z02)
From the text: as §1, §2

SGK1 = SGK1 (Homo sapiens, UniProt O00141)
From the text: as §1, §2

NEK6 = NEK6 (Homo sapiens, UniProt Q9HC98)
From the text: as §1, §2

IKKe = IKKe (Homo sapiens, UniProt Q14164)
From the text: as §1, §2

HER4 = HER4 (Homo sapiens, UniProt Q15303)
From the text: as §1, §2

STK33 = STK33 (Homo sapiens, UniProt Q9BYT3)
From the text: as §1, §2

ZAP70 = ZAP70 (Homo sapiens, UniProt P43403)
From the text: as §1, §2

BTK = BTK (Homo sapiens, UniProt Q06187)
From the text: as §1, §2

ULK2 = ULK2 (Homo sapiens, UniProt Q8IYT8)
From the text: as §1, §2

CSK = CSK (Homo sapiens, UniProt P41240)
From the text: as §1, §2

SRPK1 = SRPK1 (Homo sapiens, UniProt Q96SB4)
From the text: as §1, §2

IKKb = IKKb (Homo sapiens, UniProt O14920)
From the text: as §1, §2

RSK2 = RSK2 (Homo sapiens, UniProt P51812)
From the text: as §1, §2

TESK1 = TESK1 (Homo sapiens, UniProt Q15569)
From the text: as §1, §2

WNK1 = WNK1 (Homo sapiens, UniProt Q9H4A3)
From the text: as §1, §2

HIPK2 = HIPK2 (Homo sapiens, UniProt Q9H2X6)
From the text: as §1, §2

ERK5 = ERK5 (Homo sapiens, UniProt Q13164)
From the text: as §1, §2

p38d MAPK = p38d MAPK (Homo sapiens, UniProt O15264)
From the text: as §1, §2

MARK1 = MARK1 (Homo sapiens, UniProt Q9P0L2)
From the text: as §1, §2

EPH-A2 = EPH-A2 (Homo sapiens, UniProt P29317)
From the text: as §1, §2

HIPK3 = HIPK3 (Homo sapiens, UniProt Q9H422)
From the text: as §1, §2

TLK1 = TLK1 (Homo sapiens, UniProt Q9UKI8)
From the text: as §1, §2

VEG-FR = VEG-FR (Homo sapiens, UniProt P17948)
From the text: as §1, §2

IRR = IRR (Homo sapiens, UniProt P14616)
From the text: as §1, §2

TTK = TTK (Homo sapiens, UniProt P33981)
From the text: as §1, §2

PAK6 = PAK6 (Homo sapiens, UniProt Q9NQU5)
From the text: as §1, §2

MKK1 = MKK1 (Homo sapiens, UniProt Q02750)
From the text: as §1, §2

NEK2a = NEK2a (Homo sapiens, UniProt P51955)
From the text: as §1, §2

MEKK1 = MEKK1 (Homo sapiens, UniProt Q13233)
From the text: as §1, §2

MLK1 = MLK1 (Homo sapiens, UniProt P80192)
From the text: as §1, §2

ABL = ABL (Homo sapiens, UniProt P00519)
From the text: as §1, §2

MAPKAP-K2 = MAPKAP-K2 (Homo sapiens, UniProt P49137)
From the text: as §1, §2

S6K1 = S6K1 (Homo sapiens, UniProt P23443)
From the text: as §1, §2

ULK1 = ULK1 (Homo sapiens, UniProt O75385)
From the text: as §1, §2

SYK = SYK (Homo sapiens, UniProt P43405)
From the text: as §1, §2

PAK2 = PAK2 (Homo sapiens, UniProt Q13177)
From the text: as §1, §2

Src = Src (Homo sapiens, UniProt P12931)
From the text: as §1, §2

MNK2 = MNK2 (Homo sapiens, UniProt Q9HBH9)
From the text: as §1, §2

CHK2 = CHK2 (Homo sapiens, UniProt O96017)
From the text: as §1, §2

YES1 = YES1 (Homo sapiens, UniProt P07947)
From the text: as §1, §2

AMPK (hum) = AMPK (hum) (Homo sapiens, UniProt Q13131)
From the text: as §1, §2

EF2K = EF2K (Homo sapiens, UniProt O00418)
From the text: as §1, §2

YES1, sequence (P07947 whole entry): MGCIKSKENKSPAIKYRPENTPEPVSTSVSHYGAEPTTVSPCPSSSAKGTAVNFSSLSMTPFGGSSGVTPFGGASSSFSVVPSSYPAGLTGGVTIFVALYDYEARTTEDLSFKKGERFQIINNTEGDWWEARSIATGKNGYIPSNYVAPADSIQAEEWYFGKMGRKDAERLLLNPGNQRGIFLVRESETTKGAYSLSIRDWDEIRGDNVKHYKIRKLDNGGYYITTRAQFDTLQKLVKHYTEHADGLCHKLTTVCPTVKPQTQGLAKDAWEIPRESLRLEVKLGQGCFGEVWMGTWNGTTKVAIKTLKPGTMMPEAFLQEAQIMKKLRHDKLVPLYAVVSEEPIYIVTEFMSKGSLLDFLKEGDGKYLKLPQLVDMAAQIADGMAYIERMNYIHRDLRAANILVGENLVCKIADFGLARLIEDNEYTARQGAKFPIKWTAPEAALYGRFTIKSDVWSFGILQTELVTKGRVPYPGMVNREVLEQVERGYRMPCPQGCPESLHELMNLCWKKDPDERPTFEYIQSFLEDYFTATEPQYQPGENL
TLK1, sequence (Q9UKI8 whole entry): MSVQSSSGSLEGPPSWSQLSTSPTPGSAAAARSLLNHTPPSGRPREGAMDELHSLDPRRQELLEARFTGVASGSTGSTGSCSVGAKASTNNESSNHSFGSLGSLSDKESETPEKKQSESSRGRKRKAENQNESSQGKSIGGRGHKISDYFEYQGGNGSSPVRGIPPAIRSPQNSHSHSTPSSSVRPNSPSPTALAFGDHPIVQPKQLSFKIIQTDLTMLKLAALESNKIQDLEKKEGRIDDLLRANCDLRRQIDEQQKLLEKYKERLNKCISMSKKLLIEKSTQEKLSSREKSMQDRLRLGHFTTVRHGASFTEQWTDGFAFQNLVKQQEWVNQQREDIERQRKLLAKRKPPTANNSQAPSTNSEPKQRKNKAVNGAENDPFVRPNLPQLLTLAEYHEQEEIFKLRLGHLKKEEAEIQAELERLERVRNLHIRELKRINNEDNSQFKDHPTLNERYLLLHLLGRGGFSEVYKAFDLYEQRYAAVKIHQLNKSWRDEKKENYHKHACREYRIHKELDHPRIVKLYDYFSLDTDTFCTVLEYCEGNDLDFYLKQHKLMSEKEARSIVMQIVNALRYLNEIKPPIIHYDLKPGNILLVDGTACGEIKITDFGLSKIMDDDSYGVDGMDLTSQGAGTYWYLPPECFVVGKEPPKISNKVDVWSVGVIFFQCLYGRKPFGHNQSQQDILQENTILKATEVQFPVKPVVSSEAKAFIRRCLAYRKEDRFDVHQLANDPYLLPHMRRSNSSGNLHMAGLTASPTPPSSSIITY
NEK6, sequence (Q9HC98 whole entry): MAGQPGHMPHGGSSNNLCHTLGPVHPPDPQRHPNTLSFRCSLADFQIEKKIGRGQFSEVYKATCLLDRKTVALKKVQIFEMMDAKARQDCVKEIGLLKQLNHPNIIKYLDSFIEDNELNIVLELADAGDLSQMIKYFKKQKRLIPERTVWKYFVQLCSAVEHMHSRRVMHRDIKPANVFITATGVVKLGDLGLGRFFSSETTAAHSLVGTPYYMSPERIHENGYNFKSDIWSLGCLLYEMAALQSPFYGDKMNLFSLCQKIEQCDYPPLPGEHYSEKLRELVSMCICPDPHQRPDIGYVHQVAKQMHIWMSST
MLK1, sequence (P80192 whole entry): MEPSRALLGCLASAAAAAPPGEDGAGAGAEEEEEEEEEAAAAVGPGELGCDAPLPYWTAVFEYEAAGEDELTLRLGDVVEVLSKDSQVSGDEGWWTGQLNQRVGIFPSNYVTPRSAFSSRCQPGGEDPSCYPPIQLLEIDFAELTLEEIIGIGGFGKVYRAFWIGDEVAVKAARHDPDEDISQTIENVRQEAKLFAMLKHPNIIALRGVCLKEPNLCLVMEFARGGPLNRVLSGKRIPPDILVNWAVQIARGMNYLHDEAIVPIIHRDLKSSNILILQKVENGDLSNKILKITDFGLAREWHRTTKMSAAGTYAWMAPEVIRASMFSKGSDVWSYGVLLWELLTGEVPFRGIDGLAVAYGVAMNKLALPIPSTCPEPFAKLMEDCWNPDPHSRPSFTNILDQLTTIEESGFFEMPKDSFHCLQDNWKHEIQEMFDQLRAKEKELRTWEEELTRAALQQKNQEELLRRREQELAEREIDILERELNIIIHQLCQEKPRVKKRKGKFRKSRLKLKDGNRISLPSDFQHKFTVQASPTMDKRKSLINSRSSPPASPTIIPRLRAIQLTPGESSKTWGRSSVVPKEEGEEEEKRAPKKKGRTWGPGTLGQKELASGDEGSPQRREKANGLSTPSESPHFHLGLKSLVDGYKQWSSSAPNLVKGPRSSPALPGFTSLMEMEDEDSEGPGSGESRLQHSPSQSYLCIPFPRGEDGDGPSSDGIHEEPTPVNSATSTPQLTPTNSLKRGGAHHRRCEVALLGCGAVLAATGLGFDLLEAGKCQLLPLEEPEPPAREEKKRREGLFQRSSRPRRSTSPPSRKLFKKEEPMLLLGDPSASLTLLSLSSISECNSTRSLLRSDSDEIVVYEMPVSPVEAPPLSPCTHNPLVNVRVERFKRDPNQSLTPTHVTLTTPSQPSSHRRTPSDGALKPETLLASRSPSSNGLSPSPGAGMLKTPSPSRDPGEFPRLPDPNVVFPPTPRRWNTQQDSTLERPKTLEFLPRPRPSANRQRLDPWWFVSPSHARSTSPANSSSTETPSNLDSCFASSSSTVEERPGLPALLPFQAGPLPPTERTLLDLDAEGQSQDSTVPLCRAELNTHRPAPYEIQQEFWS
HIPK3, sequence (Q9H422 whole entry): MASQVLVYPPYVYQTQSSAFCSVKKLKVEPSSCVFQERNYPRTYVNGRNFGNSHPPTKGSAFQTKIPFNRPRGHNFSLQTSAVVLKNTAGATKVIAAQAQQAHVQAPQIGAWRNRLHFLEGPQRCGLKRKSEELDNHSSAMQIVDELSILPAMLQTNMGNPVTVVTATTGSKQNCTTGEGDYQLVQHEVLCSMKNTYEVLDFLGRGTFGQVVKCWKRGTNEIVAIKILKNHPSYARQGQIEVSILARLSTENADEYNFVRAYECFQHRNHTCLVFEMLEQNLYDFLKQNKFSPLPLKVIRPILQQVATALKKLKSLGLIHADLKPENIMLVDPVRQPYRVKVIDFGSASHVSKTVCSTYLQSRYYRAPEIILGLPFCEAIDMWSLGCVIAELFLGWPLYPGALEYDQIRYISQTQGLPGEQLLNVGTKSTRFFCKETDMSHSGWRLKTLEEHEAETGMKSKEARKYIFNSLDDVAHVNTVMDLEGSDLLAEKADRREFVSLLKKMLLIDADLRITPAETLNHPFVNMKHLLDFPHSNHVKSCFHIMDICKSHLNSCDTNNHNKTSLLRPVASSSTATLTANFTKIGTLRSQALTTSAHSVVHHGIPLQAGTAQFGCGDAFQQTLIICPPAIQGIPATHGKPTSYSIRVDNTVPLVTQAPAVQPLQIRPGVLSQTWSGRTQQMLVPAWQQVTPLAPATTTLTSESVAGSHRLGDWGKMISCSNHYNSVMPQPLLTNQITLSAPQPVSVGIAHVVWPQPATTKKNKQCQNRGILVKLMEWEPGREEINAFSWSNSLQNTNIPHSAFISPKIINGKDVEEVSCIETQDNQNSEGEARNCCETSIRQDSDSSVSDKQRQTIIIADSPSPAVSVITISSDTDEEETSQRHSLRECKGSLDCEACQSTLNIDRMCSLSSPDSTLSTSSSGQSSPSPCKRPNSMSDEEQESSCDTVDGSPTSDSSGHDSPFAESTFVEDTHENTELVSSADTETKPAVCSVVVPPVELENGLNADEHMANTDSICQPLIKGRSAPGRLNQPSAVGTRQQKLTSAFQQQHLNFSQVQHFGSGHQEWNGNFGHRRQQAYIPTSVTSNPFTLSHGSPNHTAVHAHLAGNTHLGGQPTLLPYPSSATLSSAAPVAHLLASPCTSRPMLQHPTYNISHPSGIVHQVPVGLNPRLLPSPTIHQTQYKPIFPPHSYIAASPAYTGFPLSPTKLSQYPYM
MNK2, sequence (Q9HBH9 whole entry): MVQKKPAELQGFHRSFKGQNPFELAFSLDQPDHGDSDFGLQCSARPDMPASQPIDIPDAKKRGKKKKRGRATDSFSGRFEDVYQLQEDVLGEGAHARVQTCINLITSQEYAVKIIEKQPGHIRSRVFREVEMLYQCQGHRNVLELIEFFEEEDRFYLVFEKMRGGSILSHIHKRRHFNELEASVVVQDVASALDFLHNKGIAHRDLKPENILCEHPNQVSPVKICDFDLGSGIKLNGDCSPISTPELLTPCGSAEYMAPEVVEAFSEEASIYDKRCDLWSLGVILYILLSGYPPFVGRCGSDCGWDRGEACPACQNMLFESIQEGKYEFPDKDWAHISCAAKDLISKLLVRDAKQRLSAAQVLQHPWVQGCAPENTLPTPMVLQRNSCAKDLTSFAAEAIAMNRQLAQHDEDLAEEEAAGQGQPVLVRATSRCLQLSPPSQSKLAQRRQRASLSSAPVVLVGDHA
JNK2, sequence (P45984 whole entry): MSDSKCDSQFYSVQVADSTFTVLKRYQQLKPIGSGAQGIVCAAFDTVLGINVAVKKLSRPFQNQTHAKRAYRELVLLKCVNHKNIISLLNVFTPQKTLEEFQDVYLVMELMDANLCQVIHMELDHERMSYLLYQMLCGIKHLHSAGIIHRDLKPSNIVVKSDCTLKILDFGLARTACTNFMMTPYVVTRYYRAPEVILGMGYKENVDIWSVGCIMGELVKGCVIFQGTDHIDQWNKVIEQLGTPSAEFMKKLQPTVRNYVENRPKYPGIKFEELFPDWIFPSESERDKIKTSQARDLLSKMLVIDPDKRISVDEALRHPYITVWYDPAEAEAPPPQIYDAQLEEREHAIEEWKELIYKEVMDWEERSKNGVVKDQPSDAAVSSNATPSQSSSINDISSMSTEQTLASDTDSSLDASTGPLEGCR

## CCN(CC)Cc1ccc(OC)c(-c2cc3c(-c4ccc(C(=O)O)c(C(C)C)c4)ccnc3[nH]2)c1 [analogue 1, 4-(2-(5-((Diethylamino)methyl)-2-methoxyphenyl)-1H-pyrrolo[2,3-b]pyridin-4-yl)-2-isopropylbenzoic Acid]
EPH-B1
  activity at 1 µM: 124%
JNK2
  activity at 1 µM: 62%
PRK2
  activity at 1 µM: 48%
JAK3
  activity at 1 µM: 22%
HIPK1
  activity at 1 µM: 83%
SGK1
  activity at 1 µM: 38%
NEK6
  activity at 1 µM: 96%
IKKe
  activity at 1 µM: 52%
HER4
  activity at 1 µM: 112%
STK33
  activity at 1 µM: 44%
ZAP70
  activity at 1 µM: 59%
BTK
  activity at 1 µM: 119%
ULK2
  activity at 1 µM: 96%
CSK
  activity at 1 µM: 74%
SRPK1
  activity at 1 µM: 92%
IKKb
  activity at 1 µM: 144%
RSK2
  activity at 1 µM: 87%
TESK1
  activity at 1 µM: 78%
WNK1
  activity at 1 µM: 105%
HIPK2
  activity at 1 µM: 56%
ERK5
  activity at 1 µM: 54%
p38d MAPK
  activity at 1 µM: 117%
MARK1
  activity at 1 µM: 52%
EPH-A2
  activity at 1 µM: 64%
HIPK3
  activity at 1 µM: 93%
TLK1
  activity at 1 µM: 106%
VEG-FR
  activity at 1 µM: 80%
IRR
  activity at 1 µM: 101%
TTK
  activity at 1 µM: 86%
PAK6
  activity at 1 µM: 92%
MKK1
  activity at 1 µM: 79%
NEK2a
  activity at 1 µM: 87%
MEKK1
  activity at 1 µM: 112%
MLK1
  activity at 1 µM: 111%
ABL
  activity at 1 µM: 59%
MAPKAP-K2
  activity at 1 µM: 102%
S6K1
  activity at 1 µM: 87%
ULK1
  activity at 1 µM: 80%
SYK
  activity at 1 µM: 89%
PAK2
  activity at 1 µM: 84%
Src
  activity at 1 µM: 42%
MNK2
  activity at 1 µM: 29%
CHK2
  activity at 1 µM: 77%
YES1
  activity at 1 µM: 67%
AMPK (hum)
  activity at 1 µM: 30%
EF2K
  activity at 1 µM: 113%
